Results from article PMC7253423, “Quassinoid analogs with enhanced efficacy for treatment of hematologic malignancies target the PI3Kγ isoform” (Communications Biology, 2020).
Where “and” joins values, the source holds several entries; their conditions need not be identical. Identical values can stand only once.

How the values were obtained:
K562 cells [1] = assay: Cell viability assay (CellTiter-Glo luminescence); type: cell-based, human; conditions: K562, 100nM, 72 hours
Method: (§1) 5000 cells as indicated were cultured in 96-well plate with 100 μl of media. […] After treatment, the cells were incubated with 100 μl buffer for 10 min at room temperature following the instructions of CellTiter-Glo kit (Promega, Madison, WI). Luminescence was detected using a multi-mode reader Cytation 5 (BioTek, Winooski, VT). […] Two independent experiments done in duplicates were performed.

Raji cells [2] = assay: Cell viability assay (CellTiter-Glo luminescence); type: cell-based, human; conditions: for Cell viability (luminescence): duplicates
Method: as §1

SU-DHL-4 cells [3] = assay: Cell viability assay (CellTiter-Glo luminescence); type: cell-based, human
Method: as §1

[4] = tested on: hematologic malignancies derived cell lines; assay: Cell viability assay, panel of hematologic malignancy derived cell lines; type: cell-based, human; conditions: 100 nM, 72 h, lymphoma, leukemia and multiple myeloma cell lines (13 cell lines for analogs)
Method: 5000 cells as indicated were cultured in 96-well plate with 100 μl of media. On the next day, Brusatol or associated analogs were added once to the cells without media change. After treatment, the cells were incubated with 100 μl buffer for 10 min at room temperature following the instructions of CellTiter-Glo kit (Promega, Madison, WI). Luminescence was detected using a multi-mode reader Cytation 5 (BioTek, Winooski, VT). […] Two independent experiments done in duplicates were performed.

HL-60 cells [5] = assay: Cell cycle assay (PI staining, flow cytometry); type: cell-based, human; conditions: HL-60, 100 nM, 48 h
Method: (§2) Five million cells were harvested, fixed with 80% ethanol for 2 h or overnight at −20 °C, then washed with PBS and incubated with Propidium iodide (PI) staining buffer (0.5 mg/ml propidium iodide in PBS with 50 μg/ml RNase A) for 30 min at room temperature. The stained cells were resuspended in PBS and analyzed on a FACSCalibur system (Becton Dickinson, San Jose, CA, USA) using FlowJo software (TreeStar, San Carlos, CA, USA).

K562 cells [6] = assay: Cell cycle assay (PI staining, flow cytometry); type: cell-based, human; conditions: K562, 100 nM, 48 h
Method: as §2

Raji cells [7] = assay: Cell cycle assay (PI staining, flow cytometry); type: cell-based, human; conditions: 100 nM, 48 h
Method: as §2

SU-DHL-4 cells [8] = assay: Cell cycle assay (PI staining, flow cytometry); type: cell-based, human; conditions: SU-DHL-4, 100 nM, 48 h
Method: as §2

LCL1 cells [9] = assay: Real-time PCR, mRNA expression; type: cell-based, human
Method: (§3) Real-time PCR experiments were performed as previously described. The experiments were performed in triplicate.

Raji cells [10] = assay: Real-time PCR, mRNA expression; type: cell-based, human
Method: as §3

HL-60 cells [11] = assay: Western blot of PI3K/AKT signaling proteins; type: cell-based, human; conditions: HL-60, 0, 50 nM, 100 nM; 0, 12 h, 24 h
Method: (§4) Western blot analyses were performed as previously described. Briefly, total cell lysates were separated by SDS-PAGE gel and transferred to nitrocellulose membrane. The membranes were blocked with 5% non-fat milk, probed with specific antibodies, and visualized using the Odyssey scanner (LiCor Inc., Lincoln, NE).

K562 cells [12] = assay: Western blot of PI3K/AKT signaling proteins; type: cell-based, human; conditions: K562, 0, 50 nM, 100 nM; 0, 12 h, 24 h
Method: as §4

LCL1 cells [13] = assay: Western blot of PI3K/AKT signaling proteins; type: cell-based, human; conditions: LCL1, Fig. 2i
Method: as §4

Raji cells [14] = assay: Western blot of PI3K/AKT signaling proteins; type: cell-based, human
Method: as §4

SU-DHL-4 cells [15] = assay: Western blot of PI3K/AKT signaling proteins; type: cell-based, human; conditions: SU-DHL-4, 0, 50 nM, 100 nM; 0, 12 h, 24 h
Method: as §4

MOLM14 xenografts = assay: In vivo tumorigenic assay using xenografts, tumor size; design: species or system NOD/SCID mice; conditions: for tumor size (Fig 5d&5e), individual mice: MOLM14 xenograft
Method: Six-week-old male NOD.CB17-Prkdc^scid/J (NOD/SCID) mice (Jackson Labs, Bar Harbor, ME, USA) were used as the human-in-mouse xeno-transplantation model. MOLM14 cells (1 × 10^7 cells) were injected into the subcutaneous space on the left flank of the mice. […] Body weight and tumor size were monitored before every injection. After treatment for 2 weeks, the mice were euthanized by CO2 inhalation and the tumors were carefully excised. The tumor volume (mm^3) was measured and calculated using the formula (a × b × b)/2 (a, the largest diameter of two measurements; b, the smallest diameter of two measurements).

[16] = Cytotoxicity, cell viability assay in normal cells; type: cell-based, human; conditions: human, PBMC, fraction of 0 μM control, read-out: relative cell viability (Fig 6a), replicates
PBMC = assay: Cytotoxicity, cell viability assay in normal cells; type: cell-based, human; conditions: Fig 5c
[17] = Raji, 0, 50 nM, 100 nM, 0, 12 h, 24 h

With Brusatol the killing (K562 cells [1]; experiment of Fig 3a) was “more than 90%”, the killing (K562 cells [1]; independent experiment of Fig 3b) was “approximately 50%” and the “inhibition of viability (cells inhibited)” value (Raji cells [2]; 100 nM, 48 h post-treatment) was “more than 80%”. For the same compound, the “Cell viability (luminescence)” value (Raji cells [2]; cell number 0, 100 nM, 72 h) was 0.9927 and 1.007, the “Cell viability (luminescence)” value (Raji cells [2]; cell number 625, 100 nM, 72 h) was 3.94 and 4.0527 and the “Cell viability (luminescence)” value (Raji cells [2]; cell number 1250, 100 nM, 72 h) was 7.303 and 7.093. The “Cell viability (luminescence)” value (Raji cells [2]; cell number 2500, 100 nM, 72 h) was 8.911 and 8.321, the “Cell viability (luminescence)” value (Raji cells [2]; cell number 5000, 100 nM, 72 h) was 13.6562 and 12.7698 and the “Cell viability (luminescence)” value (Raji cells [2]; cell number 10000, 100 nM, 72 h) was 11.8436 and 13.905. For the same compound, the “inhibition of viability (cells inhibited)” value (SU-DHL-4 cells [3]; SU-DHL-4, 100 nM, 48 h post-treatment) was “more than 80%”, the “inhibition of cell viability in panel of cell lines” value [4] was “broad and potent inhibitory effects” and the Sub-G1 population (HL-60 cells [5]) was 7.63%. For the same compound, the Sub-G1 population (K562 cells [6]) was 3.19%, the Sub-G1 population (Raji cells [7]) was 68.4% and the Sub-G1 population (SU-DHL-4 cells [8]) was 67.9%. The “mRNA levels of AKT1, ATF3, PIK3CG, and PIK3C2B” value (LCL1 cells [9]) was “downregulated”, the “mRNA levels of AKT1, ATF3, PIK3CG, and PIK3C2B” value (Raji cells [10]) was “downregulated” and the “protein expression of AKT1, GSK3, and mTOR” value (shortened to “protein expression of AKT1”) (HL-60 cells [11]) was “minimally affected”. For the same compound, the “protein expression of AKT1” value (K562 cells [12]) was “minimally affected”, the “levels of AKT1 and GSK3 proteins” value (LCL1 cells [13]) was “decreased” and the “protein expression of AKT1” value (Raji cells [14]; [17]) was “substantially reduced”. For the same compound, the “levels of AKT1 and GSK3 proteins” value (Raji cells [14]; Raji, Fig. 2h) was “decreased”, the “protein expression of AKT1” value (SU-DHL-4 cells [15]) was “substantially reduced” and the “tumor size (Fig 5d&5e), individual mice” value (MOLM14 xenografts; 0d) was 79.6409 and 170.904 and 81.1118 and 93.0315 and 105.314 and 98.3496. The “tumor size (Fig 5d&5e), individual mice” value (MOLM14 xenografts; 2d) was 114.921 and 89.4339 and 85.1926 and 118.807 and 122.531 and 72.1684, the “tumor size (Fig 5d&5e), individual mice” value (MOLM14 xenografts; 4d) was 71.6608 and 87.7482 and 91.4458 and 96.2719 and 66.2604 and 63.9219 and the “tumor size (Fig 5d&5e), individual mice” value (MOLM14 xenografts; 6d) was 86.9292 and 188.062 and 142.989 and 148.569 and 65.5816 and 390.002. The “tumor size (Fig 5d&5e), individual mice” value (MOLM14 xenografts; 8d) was 191.246 and 199.336 and 280.113 and 250.93 and 138.38 and 152.733, the “tumor size (Fig 5d&5e), individual mice” value (MOLM14 xenografts; 10d) was 255.462 and 401.539 and 386.529 and 187.744 and 278.266 and the “tumor size (Fig 5d&5e), individual mice” value (MOLM14 xenografts; 12d) was 394.032 and 649.634 and 755.109 and 281.476 and 493.005.

Compound `COC(=O)C12OCC34C(CC5C(C)=C(OC(=O)CNC(=O)OC(C)(C)C)C(=O)CC5(C)C3C(O)C1O)OC(=O)C(OC(=O)C=C(C)C)C24` (stereo not shown) [#15] has an IC50 (Raji cells [2]; Homo sapiens, 72 h) of 92.9 nM, a viability at 0.00244141 µM (Raji cells [2]; Homo sapiens, read-out: relative cell viability (Fig 6f), replicates, Raji, Con. 0.00244141 μM, fraction of 0 μM control) of 120% and a viability at 0.0390625 µM (Raji cells [2]; Homo sapiens, read-out: relative cell viability (Fig 6f), replicates, Raji, Con. 0.0390625 μM, fraction of 0 μM control) of 63.6%. For the same compound, the viability at 0.15625 µM (Raji cells [2]; Homo sapiens, read-out: relative cell viability (Fig 6f), replicates, Raji, Con. 0.15625 μM, fraction of 0 μM control) was 25.8%, the viability at 0.625 µM (Raji cells [2]; Homo sapiens, read-out: relative cell viability (Fig 6f), replicates, Raji, Con. 0.625 μM, fraction of 0 μM control) was 10.3% and the viability at 10 µM (Raji cells [2]; Homo sapiens, read-out: relative cell viability (Fig 6f), replicates, Raji, Con. 10 μM, fraction of 0 μM control) was 5.59%. It also gave a viability at 0.00244141 µM (SU-DHL-4 cells [3]; Homo sapiens, SU-DHL-4, 144 h, read-out: relative cell viability (Fig 6d), replicates, SU-DHL-4, Con. 0.00244141 μM, fraction of 0 μM control) of 90.7%, a viability at 0.0390625 µM (SU-DHL-4 cells [3]; Homo sapiens, SU-DHL-4, 144 h, read-out: relative cell viability (Fig 6d), replicates, SU-DHL-4, Con. 0.0390625 μM, fraction of 0 μM control) of 35.2% and a viability at 0.15625 µM (SU-DHL-4 cells [3]; Homo sapiens, SU-DHL-4, 144 h, read-out: relative cell viability (Fig 6d), replicates, SU-DHL-4, Con. 0.15625 μM, fraction of 0 μM control) of 13.9%. The viability at 0.625 µM (SU-DHL-4 cells [3]; Homo sapiens, SU-DHL-4, 144 h, read-out: relative cell viability (Fig 6d), replicates, SU-DHL-4, Con. 0.625 μM, fraction of 0 μM control) was 7.7%, the viability at 10 µM (SU-DHL-4 cells [3]; Homo sapiens, SU-DHL-4, 144 h, read-out: relative cell viability (Fig 6d), replicates, SU-DHL-4, Con. 10 μM, fraction of 0 μM control) was 4.89% and the viability at 0.000244141 μM ([16]; Con. 0.000244141 μM) was 104%. For the same compound, the viability at 0.00390625 μM ([16]; Con. 0.00390625 μM) was 91.7%, the viability at 0.015625 μM ([16]; Con. 0.015625 μM) was 76.5% and the viability at 0.0625 μM ([16]; Con. 0.0625 μM) was 74.9%. The viability at 1 μM ([16]; Con. 1 μM) was 61.2%, the “Cell viability, raw luminescence reading” value (PBMC; Con. 0.01 μM) was 24385 and 24514 and the “Cell viability, raw luminescence reading” value (PBMC; Con. 0.039 μM) was 25686 and 22234. For the same compound, the “Cell viability, raw luminescence reading” value (PBMC; Con. 0.156 μM) was 6585 and 8242, the “Cell viability, raw luminescence reading” value (PBMC; Con. 0.625 μM) was 7188 and 7989 and the “Cell viability, raw luminescence reading” value (PBMC; Con. 10 μM) was 9130 and 9273. The “inhibition of cell viability in panel of cell lines” value [4] was “significantly inhibit”, the “suppression of AKT1, GSK3, and mTOR levels” value (Raji cells [14]; [17]) was “largely similar to Brusatol” and the “tumor size, inhibitory response” value (MOLM14 xenografts; 2 mg/kg intraperitoneally three times per week, 2 weeks, vs PBS control) was “strong and rapid inhibitory response”. The “tumor size (Fig 5d&5e), individual mice” value (MOLM14 xenografts; 0d) was 78.7304 and 93.4671 and 63.7324 and 75.8678 and 67.9005 and 67.4325, the “tumor size (Fig 5d&5e), individual mice” value (MOLM14 xenografts; 2d) was 74.0736 and 114.773 and 91.676 and 153.055 and 77.875 and 106.489 and the “tumor size (Fig 5d&5e), individual mice” value (MOLM14 xenografts; 4d) was 75.6994 and 102.99 and 96.7244 and 124.841 and 62.8883 and 83.9808. For the same compound, the “tumor size (Fig 5d&5e), individual mice” value (MOLM14 xenografts; 6d) was 103.463 and 91.5117 and 52.853 and 252.562 and 146.711 and 106.359, the “tumor size (Fig 5d&5e), individual mice” value (MOLM14 xenografts; 8d) was 91.2302 and 210.386 and 191.93 and 161.391 and 92.482 and 87.983 and the “tumor size (Fig 5d&5e), individual mice” value (MOLM14 xenografts; 10d) was 119.98 and 398.721 and 249.328 and 242.913 and 135.818 and 159.498. The “tumor size (Fig 5d&5e), individual mice” value (MOLM14 xenografts; 12d) was 236.553 and 558.264 and 472.199 and 496.746 and 222.458 and 242.483.
